As usually defined, the inhibition is the share of the control response that was lost under treatment.

Sequence of Recombinant human JAK1 catalytic domain (P23458 875-1153): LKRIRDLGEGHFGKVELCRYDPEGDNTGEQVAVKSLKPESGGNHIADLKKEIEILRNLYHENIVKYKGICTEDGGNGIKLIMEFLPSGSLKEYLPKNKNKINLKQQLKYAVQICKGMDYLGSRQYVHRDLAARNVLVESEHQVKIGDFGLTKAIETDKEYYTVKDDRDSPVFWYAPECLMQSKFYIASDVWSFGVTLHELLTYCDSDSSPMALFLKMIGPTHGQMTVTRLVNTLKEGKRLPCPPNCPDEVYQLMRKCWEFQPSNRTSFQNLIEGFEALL

For one test, the target named is Recombinant human JAK1 catalytic domain (Homo sapiens (Human), UniProt P23458). The test can be described thus: JAK1 kinase assay (Z'-LYTE Tyr 6 Peptide). The test is classed as biochemical. The settings on record: JAK1 kinase assay, 0.3 uM concentration; read-out: inhibition percentage (IR %). How it is done:
JAK1/2/3 kinase assay are performed in vitro using Kit-Tyr 6 Peptide (Invitrogen, Cat. No. PV4122). TYK2 kinase assay are performed in vitro using Z′-LYTE™ Kinase Assay Kit-Tyr 3 Peptide (Invitrogen, Cat. No. PV3192). […] All compounds are initially tested at 8 different concentrations (1 μM down to 0.0003 μM) using a 1:3 serial dilution scheme.
For `CN(c1ncc(C#N)cc1Cl)[C@@H]1CCN(c2ncnc3[nH]ccc23)C1` [Compound 83], the inhibition at 0.3 µM was 50 to 100%.
For the molecule `CN(c1cnc(C#N)cn1)[C@@H]1CCN(c2ncnc3[nH]ccc23)C1` [Compound 84], the inhibition at 0.3 µM was 50 to 100%.
Turning to `CN(c1ccc(Cl)nn1)[C@@H]1CCN(c2ncnc3[nH]ccc23)C1` [Compound 85], the inhibition at 0.3 µM was 50 to 100%.
In the case of `COc1cc2ncnc(N(C)[C@@H]3CCN(c4ncnc5[nH]ccc45)C3)c2cc1OC` [Compound 86], the inhibition at 0.3 µM is 50 to 100%.
As for `CN(c1nc(Cl)c(C#N)cc1F)[C@@H]1CCN(c2ncnc3[nH]ccc23)C1` [Compound 87], the inhibition at 0.3 µM was 50 to 100%.
For the molecule `CN(c1ccn2nccc2n1)[C@@H]1CCN(c2ncnc3[nH]ccc23)C1` [Compound 88], the inhibition at 0.3 µM was 20 to 50%.
Turning to `CN(c1ncc(Br)cc1C#N)[C@@H]1CCN(c2ncnc3[nH]ccc23)C1` [Compound 89], the inhibition at 0.3 µM lay in the range of 50 to 100%.
Regarding `CN(c1ccc(C#N)c(Cl)n1)[C@@H]1CCN(c2ncnc3[nH]ccc23)C1` [Compound 90], the inhibition at 0.3 µM was in the range of 50 to 100%.
With `CN(c1cccc(C#N)n1)[C@@H]1CCN(c2ncnc3[nH]ccc23)C1` [Compound 91], the inhibition at 0.3 µM was in the range of 50 to 100%.
Consider `CN(c1ccc(C#N)cn1)[C@@H]1CCN(c2ccnc3[nH]ccc23)C1` [Compound 92], for which the inhibition at 0.3 µM fell in the range of 50 to 100%.
Same read-out and setting: in the case of `CN(c1ncc(Br)cn1)[C@@H]1CCN(c2ncnc3[nH]ccc23)C1` [Compound 94] it was 50 to 100%; in that of `CN(c1ncc(C#N)s1)[C@@H]1CCN(c2ncnc3[nH]ccc23)C1` [Compound 95], 50 to 100%.
On to `CN(c1ncc(C#N)cc1[N+](=O)[O-])[C@@H]1CCN(c2ncnc3[nH]ccc23)C1` [Compound 96], for which the inhibition at 0.3 µM was in the range of 50 to 100%.
Same read-out and setting: in the case of `N#Cc1cnc(N[C@@H]2CCN(c3ncnc4[nH]ccc34)C2)c([N+](=O)[O-])c1` [Compound 97] it was 50 to 100%; in that of `CCCN(c1ccc(C#N)cn1)[C@@H]1CCN(c2ncnc3[nH]ccc23)C1` [Compound 98], 50 to 100%; in that of `CN(c1ncc(C#N)cc1Br)[C@@H]1CCN(c2ncnc3[nH]ccc23)C1` [Compound 99], 50 to 100%.
With `Cc1cc(C#N)cnc1N(C)[C@@H]1CCN(c2ncnc3[nH]ccc23)C1` [Compound 100], the inhibition at 0.3 µM fell in the range of 20 to 50%.
Regarding `Cc1ccc(N(C)[C@@H]2CCN(c3ncnc4[nH]ccc34)C2)nc1` [Compound 101], the inhibition at 0.3 µM fell in the range of 50 to 100%.
As to `CN(c1ccc(C#N)cn1)[C@H]1CCN(c2ncnc3[nH]ccc23)C1` [Compound 102], the inhibition at 0.3 µM was in the range of 50 to 100%.
For `CN(c1ccc(C#N)cc1F)[C@@H]1CCN(c2ncnc3[nH]ccc23)C1` [Compound 103, (R)-4-((1-(7H-pyrrolo[2,3-d]pyrimidin-4-yl)pyrrolidin-3-yl)(methyl)amino)-3-fluorobenzonitrile], the inhibition at 0.3 µM was in the range of 50 to 100%.
For the molecule `CN(c1ccc(C#N)cc1)[C@@H]1CCN(c2ncnc3[nH]ccc23)C1` [Compound 104], the inhibition at 0.3 µM fell in the range of 50 to 100%.
On to `CN(c1cc(F)c(C#N)c(F)c1)[C@@H]1CCN(c2ncnc3[nH]ccc23)C1` [Compound 106], for which the inhibition at 0.3 µM is 50 to 100%.
Take `CN(c1ccc(C#N)cc1[N+](=O)[O-])[C@@H]1CCN(c2ncnc3[nH]ccc23)C1` [Compound 107]: the inhibition at 0.3 µM is 50 to 100%.
Consider `CN(c1c(F)cc(C#N)cc1F)[C@@H]1CCN(c2ncnc3[nH]ccc23)C1` [Compound 108], for which the inhibition at 0.3 µM lay in the range of 50 to 100%.
In the case of `CN(c1ccc(C#N)cc1C(F)(F)F)[C@@H]1CCN(c2ncnc3[nH]ccc23)C1` [Compound 109], the inhibition at 0.3 µM was in the range of 20 to 50%.
Take `CN(c1ccc(C#N)c2ccccc12)[C@@H]1CCN(c2ncnc3[nH]ccc23)C1` [Compound 111]: the inhibition at 0.3 µM lay in the range of 50 to 100%.
As for `CN(c1ccc(C#N)cc1Cl)[C@@H]1CCN(c2ncnc3[nH]ccc23)C1` [Compound 112], the inhibition at 0.3 µM was in the range of 50 to 100%.
Same read-out and setting: in the case of `CN(c1ccc(C#N)c(C#N)c1)[C@@H]1CCN(c2ncnc3[nH]ccc23)C1` [Compound 113] it was 20 to 50%; in that of `CN(c1ccc(C#N)c(Br)c1)[C@@H]1CCN(c2ncnc3[nH]ccc23)C1` [Compound 114], 50 to 100%.
Take `CN(c1ccc(C#N)cc1Br)[C@@H]1CCN(c2ncnc3[nH]ccc23)C1` [Compound 115]: the inhibition at 0.3 µM lay within 50 to 100%.
Regarding `CN(c1c(F)c(F)c(C#N)c(F)c1F)[C@@H]1CCN(c2ncnc3[nH]ccc23)C1` [Compound 117], the inhibition at 0.3 µM lay in the range of 50 to 100%.
In the case of `CN(c1cc(F)cc(F)c1C#N)[C@@H]1CCN(c2ncnc3[nH]ccc23)C1` [Compound 118], the inhibition at 0.3 µM lay in the range of 20 to 50%.
The same measure, in the same setting: with `CN(c1cccc(C#N)c1)[C@@H]1CCN(c2ncnc3[nH]ccc23)C1` [Compound 119, (R)-3-((1-(7H-pyrrolo[2,3-d]pyrimidin-4-yl)pyrrolidin-3-yl)(methyl)amino)benzonitrile] the figure was 50 to 100%; with `CN(c1ccc(S(C)(=O)=O)cc1)[C@@H]1CCN(c2ncnc3[nH]ccc23)C1` [Compound 120, (R)—N-methyl-N-(4-(methylsulfonyl)phenyl)-1-(7H-pyrrolo[2,3-d]pyrimidin-4-yl)pyrrolidin-3-amine], 20 to 50%; with `CN(c1ccnc(C#N)c1)[C@@H]1CCN(c2ncnc3[nH]ccc23)C1` [Compound 121], 50 to 100%.
Turning to `CN(c1ccc(S(=O)(=O)C(F)(F)F)cc1)[C@@H]1CCN(c2ncnc3[nH]ccc23)C1` [Compound 122], the inhibition at 0.3 µM lay within 50 to 100%.
Take `CN(c1ccc(C(F)(F)F)cn1)[C@@H]1CCN(c2ncnc3[nH]ccc23)C1` [Compound 123]: the inhibition at 0.3 µM is 50 to 100%.
Turning to `N#Cc1ccc(N(CC2CC2)[C@@H]2CCN(c3ncnc4[nH]ccc34)C2)nc1` [Compound 124], the inhibition at 0.3 µM fell in the range of 50 to 100%.
Take `CCN(c1ccc(C#N)cn1)[C@@H]1CCN(c2ncnc3[nH]ccc23)C1` [Compound 126, (R)-6-((1-(7H-pyrrolo[2,3-d]pyrimidin-4-yl)pyrrolidin-3-yl)(ethyl)amino)-nicotinonitrile]: the inhibition at 0.3 µM was in the range of 50 to 100%.
As to `C#CCN(c1cnc(C#N)cn1)[C@@H]1CCN(c2ncnc3[nH]ccc23)C1` [Compound 127], the inhibition at 0.3 µM fell in the range of 50 to 100%.
For `C#CCN(c1c(F)cc(C#N)cc1F)[C@@H]1CCN(c2ncnc3[nH]ccc23)C1` [Compound 129], the inhibition at 0.3 µM lay in the range of 50 to 100%.
`C#CCN(c1ccc(C#N)cc1F)[C@@H]1CCN(c2ncnc3[nH]ccc23)C1` [Compound 130]: the inhibition at 0.3 µM lay in the range of 20 to 50%.
Consider `C#CCN(c1ccc(C#N)cc1)[C@@H]1CCN(c2ncnc3[nH]ccc23)C1` [Compound 131], for which the inhibition at 0.3 µM lay in the range of 50 to 100%.
With `CCN(c1c(F)cc(C#N)cc1F)[C@@H]1CCN(c2ncnc3[nH]ccc23)C1` [Compound 132], the inhibition at 0.3 µM is 50 to 100%.
`CCN(c1ccc(C#N)cc1F)[C@@H]1CCN(c2ncnc3[nH]ccc23)C1` [Compound 133]: the inhibition at 0.3 µM is 50 to 100%.
On to `CN(c1cnc(NCCO)cn1)[C@@H]1CCN(c2ncnc3[nH]ccc23)C1` [Compound 135], for which the inhibition at 0.3 µM was in the range of 20 to 50%.
On the same count and under the same terms, in the case of `CCOc1cnc(N(C)[C@@H]2CCN(c3ncnc4[nH]ccc34)C2)cn1` [Compound 136] it was 50 to 100%; in that of `CN(c1cnc(NCC2CC2)cn1)[C@@H]1CCN(c2ncnc3[nH]ccc23)C1` [Compound 138], 50 to 100%; in that of `COc1nccc(N(C)[C@@H]2CCN(c3ncnc4[nH]ccc34)C2)n1` [Compound 141], 20 to 50%.
Regarding `CN(c1ccc(-c2ccc(C#N)cc2)cn1)[C@@H]1CCN(c2ncnc3[nH]ccc23)C1` [Compound 146], the inhibition at 0.3 µM was 20 to 50%.
As to `CN(c1ccc(-c2cccs2)cn1)[C@@H]1CCN(c2ncnc3[nH]ccc23)C1` [Compound 147], the inhibition at 0.3 µM lay in the range of 50 to 100%.
For the molecule `CN(c1ccc(C#N)cc1-c1cccc(C#N)c1)[C@@H]1CCN(c2ncnc3[nH]ccc23)C1` [Compound 148], the inhibition at 0.3 µM lay in the range of 20 to 50%.
On to `CN(c1ccc(-c2cn[nH]c2)cn1)[C@@H]1CCN(c2ncnc3[nH]ccc23)C1` [Compound 150], for which the inhibition at 0.3 µM was in the range of 50 to 100%.
As to `CN(c1cnc(-c2ccn[nH]2)cn1)[C@@H]1CCN(c2ncnc3[nH]ccc23)C1` [Compound 152], the inhibition at 0.3 µM was 50 to 100%.
With `CN(c1ccncn1)[C@@H]1CCN(c2ncnc3[nH]ccc23)C1` [Compound 154, (R)—N-(1-(7H-pyrrolo[2,3-d]pyrimidin-4-yl)pyrrolidin-3-yl)-N-methylpyrimidin-4-amine], the inhibition at 0.3 µM lay within 50 to 100%.
For `Cc1nc(N(C)[C@@H]2CCN(c3ncnc4[nH]ccc34)C2)ccc1C#N` [Compound 155], the inhibition at 0.3 µM was in the range of 50 to 100%.
For the molecule `CN(c1ccccn1)[C@@H]1CCN(c2ncnc3[nH]ccc23)C1` [Compound 156], the inhibition at 0.3 µM is 50 to 100%.
Turning to `Cc1cc(N(C)[C@@H]2CCN(c3ncnc4[nH]ccc34)C2)ncc1C#N` [Compound 157], the inhibition at 0.3 µM lay within 50 to 100%.
Same read-out and setting: in the case of `CN(c1ncc(C#N)cc1F)[C@@H]1CCN(c2ncnc3[nH]ccc23)C1` [Compound 158] it was 50 to 100%; in that of `CN(c1ncccc1C#N)[C@@H]1CCN(c2ncnc3[nH]ccc23)C1` [Compound 159], 50 to 100%.

The test is the same for the next values; noted with them: read-out: inhibition percentage (IR %).
`CN(c1cc(Cl)c(C#N)cc1F)[C@@H]1CCN(c2ncnc3[nH]ccc23)C1` [Compound 110]: the inhibition at 0.3 µM lay within 20 to 50%.
As for `CN(c1ccc(C#N)c(Cl)c1)[C@@H]1CCN(c2ncnc3[nH]ccc23)C1` [Compound 116], the inhibition at 0.3 µM was in the range of 20 to 50%.
Regarding `CN(c1ccc(-c2ccncc2)cn1)[C@@H]1CCN(c2ncnc3[nH]ccc23)C1` [Compound 144], the inhibition at 0.3 µM was in the range of 50 to 100%.

Source of the values: patent US10111875B2, “Pyrrolopyrimidine compounds and uses thereof” (HUTCHISON MEDIPHARMA LIMITED, priority 2010, dated 2018).
